# Experimental data reported in ChEMBL document CHEMBL5154644, “Design, Synthesis, and Structure-Activity Relationship Optimization of Pyrazolopyrimidine Amide Inhibitors of Phosphoinositide 3-Kinase γ (PI3Kγ)” (J Med Chem, 2022).
# Tested on: not listed separately
# Assay: Metabolic stability in rat hepatocyte assessed as intrinsic clearance per 10^8 cells at 0.5 uM by LC-MS/MS analysis
# Format: ADME, cell-based
# Conditions: hepatocytes
row,hepatocyte intrinsic clearance,Structure (SMILES)
1,< 1.2 µL/min,Cc1cc(-c2ccn3nc(N)c(C(=O)N[C@H](C)CO)c3n2)cc2c1C(=O)N([C@@H](C)C1CC1)C2
2,12.2 µL/min,Cc1cc(-c2ccn3nc(N)c(C(=O)Nc4cnn(C)c4)c3n2)cc2c1C(=O)N([C@@H](C)C1CC1)C2
3,1.5 µL/min,Cc1cc(-c2ccn3nc(N)c(C(=O)NC4CC4)c3n2)cc2c1C(=O)N([C@@H](C)C1CC1)C2

# More lines, now with the values behind:
row,Structure (SMILES),hepatocyte intrinsic clearance
1,Cc1cc(-c2ccn3nc(N)c(C(=O)NC4CCC4)c3n2)cc2c1C(=O)N([C@@H](C)C1CC1)C2,82.7 µL/min
2,C[C@@H](C1CC1)N1Cc2cc(-c3ccn4nc(N)c(C(=O)NC5CC5)c4n3)cc(S(=O)(=O)C3CC3)c2C1=O,< 1.2 µL/min

# Species: Homo sapiens
# Assay: Selectivity ratio of IC50 for inhibition of PI3Kalpha (unknown origin) to IC50 for inhibition of PI3Kgamma (unknown origin)
# Conditions: not given
row,Ratio IC50,Structure (SMILES)
1,205,Cc1cc(-c2ccn3nc(N)c(C(=O)N[C@H](C)CO)c3n2)cc2c1C(=O)N([C@@H](C)C1CC1)C2
2,904,Cc1cc(-c2ccn3nc(N)c(C(=O)NC4CC4)c3n2)cc2c1C(=O)N([C@@H](C)C1CC1)C2

# More lines, now with the values behind:
row,Structure (SMILES),Ratio IC50
1,Cc1cc(-c2ccn3nc(N)c(C(=O)NC4CCC4)c3n2)cc2c1C(=O)N([C@@H](C)C1CC1)C2,1580
2,C[C@@H](C1CC1)N1Cc2cc(-c3ccn4nc(N)c(C(=O)NC5CC5)c4n3)cc(S(=O)(=O)C3CC3)c2C1=O,223

# Target: T1, Phosphatidylinositol 4,5-bisphosphate 3-kinase catalytic subunit gamma isoform (Homo sapiens, UniProt P48736)
# Assay: Inhibition of PI3Kgamma (unknown origin) in […] stimulated human THP-1 cells assessed as reduction in Akt phosphorylation level at Ser473 residue preincubated for 60 mins followed by rhMCP-1 stimulation and measured after 2 mins by AlphaLisa assay
# Format: cell-based
# Conditions: not given
# T1 sequence (P48736 whole entry, canonical isoform): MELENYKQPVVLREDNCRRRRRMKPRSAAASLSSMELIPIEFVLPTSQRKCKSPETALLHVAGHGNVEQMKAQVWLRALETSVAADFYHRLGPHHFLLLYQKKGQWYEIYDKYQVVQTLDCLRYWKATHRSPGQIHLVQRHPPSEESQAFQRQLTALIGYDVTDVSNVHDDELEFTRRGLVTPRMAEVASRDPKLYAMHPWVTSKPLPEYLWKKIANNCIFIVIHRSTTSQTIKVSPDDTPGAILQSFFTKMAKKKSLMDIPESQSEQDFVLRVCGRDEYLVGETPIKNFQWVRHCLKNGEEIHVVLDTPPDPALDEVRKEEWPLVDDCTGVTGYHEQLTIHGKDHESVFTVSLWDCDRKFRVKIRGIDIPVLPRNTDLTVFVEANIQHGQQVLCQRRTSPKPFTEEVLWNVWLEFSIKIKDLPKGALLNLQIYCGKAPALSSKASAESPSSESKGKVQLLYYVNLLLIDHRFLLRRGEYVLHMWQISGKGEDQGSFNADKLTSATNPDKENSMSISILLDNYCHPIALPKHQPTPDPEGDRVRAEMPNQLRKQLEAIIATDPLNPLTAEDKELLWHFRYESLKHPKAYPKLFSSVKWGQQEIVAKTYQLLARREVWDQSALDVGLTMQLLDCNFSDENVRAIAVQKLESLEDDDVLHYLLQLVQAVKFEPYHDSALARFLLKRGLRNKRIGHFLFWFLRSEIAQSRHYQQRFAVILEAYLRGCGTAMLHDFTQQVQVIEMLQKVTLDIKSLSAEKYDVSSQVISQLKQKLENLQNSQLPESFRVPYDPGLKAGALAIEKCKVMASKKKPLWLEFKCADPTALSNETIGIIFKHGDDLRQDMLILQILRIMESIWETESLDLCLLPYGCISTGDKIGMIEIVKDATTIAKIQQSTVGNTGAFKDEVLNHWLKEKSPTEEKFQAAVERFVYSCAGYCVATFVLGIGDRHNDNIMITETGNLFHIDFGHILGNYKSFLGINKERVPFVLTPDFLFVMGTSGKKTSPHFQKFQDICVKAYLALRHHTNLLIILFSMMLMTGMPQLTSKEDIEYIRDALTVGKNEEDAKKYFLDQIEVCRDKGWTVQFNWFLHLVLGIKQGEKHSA
row,IC50,Structure (SMILES)
1,186 nM,Cc1cc(-c2ccn3nc(N)c(C(=O)N[C@H](C)CO)c3n2)cc2c1C(=O)N([C@@H](C)C1CC1)C2
2,127 nM,Cc1cc(-c2ccn3nc(N)c(C(=O)Nc4cnn(C)c4)c3n2)cc2c1C(=O)N([C@@H](C)C1CC1)C2
3,212 nM,Cc1cc(-c2ccn3nc(N)c(C(=O)NC4CC4)c3n2)cc2c1C(=O)N([C@@H](C)C1CC1)C2

# Further lines, the compound ahead of its results:
row,Structure (SMILES),IC50
1,Cc1cc(-c2ccn3nc(N)c(C(=O)NC4CCC4)c3n2)cc2c1C(=O)N([C@@H](C)C1CC1)C2,292 nM
2,C[C@@H](C1CC1)N1Cc2cc(-c3ccn4nc(N)c(C(=O)NC5CC5)c4n3)cc(S(=O)(=O)C3CC3)c2C1=O,56 nM

# Target: T1, Phosphatidylinositol 4,5-bisphosphate 3-kinase catalytic subunit gamma isoform
# Assay: Inhibition of PI3Kgamma (unknown origin) using PIP2 as substrate preincubated for 1 hr followed by substrate addition and measured after 60 mins in presence of ATP by ADP-glo assay
# Conditions: not given
row,IC50,Structure (SMILES)
1,3.5 nM,Cc1cc(-c2ccn3nc(N)c(C(=O)N[C@H](C)CO)c3n2)cc2c1C(=O)N([C@@H](C)C1CC1)C2
2,3.4 nM,Cc1cc(-c2ccn3nc(N)c(C(=O)Nc4cnn(C)c4)c3n2)cc2c1C(=O)N([C@@H](C)C1CC1)C2
3,3.6 nM,Cc1cc(-c2ccn3nc(N)c(C(=O)NC4CC4)c3n2)cc2c1C(=O)N([C@@H](C)C1CC1)C2

# The remaining lines, values behind:
row,Structure (SMILES),IC50
1,Cc1cc(-c2ccn3nc(N)c(C(=O)NC4CCC4)c3n2)cc2c1C(=O)N([C@@H](C)C1CC1)C2,2.3 nM
2,C[C@@H](C1CC1)N1Cc2cc(-c3ccn4nc(N)c(C(=O)NC5CC5)c4n3)cc(S(=O)(=O)C3CC3)c2C1=O,1.7 nM

# Tested on: not listed separately
# Assay: Hepatic clearance in Sprague-Dawley rat by LC-MS/MS analysis
# Format: ADME
# Conditions: in vivo
row,CLH,Structure (SMILES)
1,0.9 L/h/kg,Cc1cc(-c2ccn3nc(N)c(C(=O)N[C@H](C)CO)c3n2)cc2c1C(=O)N([C@@H](C)C1CC1)C2
2,2.6 L/h/kg,Cc1cc(-c2ccn3nc(N)c(C(=O)Nc4cnn(C)c4)c3n2)cc2c1C(=O)N([C@@H](C)C1CC1)C2
3,0.4 L/h/kg,Cc1cc(-c2ccn3nc(N)c(C(=O)NC4CC4)c3n2)cc2c1C(=O)N([C@@H](C)C1CC1)C2

# Continued, compound first:
row,Structure (SMILES),CLH
1,Cc1cc(-c2ccn3nc(N)c(C(=O)NC4CCC4)c3n2)cc2c1C(=O)N([C@@H](C)C1CC1)C2,4.6 L/h/kg
2,C[C@@H](C1CC1)N1Cc2cc(-c3ccn4nc(N)c(C(=O)NC5CC5)c4n3)cc(S(=O)(=O)C3CC3)c2C1=O,2.5 L/h/kg

# Target: Phosphatidylinositol 4,5-bisphosphate 3-kinase catalytic subunit alpha isoform (Homo sapiens, UniProt P42336)
# Assay: Inhibition of PI3Kalpha (unknown origin) using PIP2 as substrate preincubated for 1 hr followed by substrate addition and measured after 60 mins in presence of ATP by ADP-glo assay
# Conditions: not given
# Phosphatidylinositol 4,5-bisphosphate 3-kinase catalytic subunit alpha isoform, sequence (P42336 whole entry, canonical isoform): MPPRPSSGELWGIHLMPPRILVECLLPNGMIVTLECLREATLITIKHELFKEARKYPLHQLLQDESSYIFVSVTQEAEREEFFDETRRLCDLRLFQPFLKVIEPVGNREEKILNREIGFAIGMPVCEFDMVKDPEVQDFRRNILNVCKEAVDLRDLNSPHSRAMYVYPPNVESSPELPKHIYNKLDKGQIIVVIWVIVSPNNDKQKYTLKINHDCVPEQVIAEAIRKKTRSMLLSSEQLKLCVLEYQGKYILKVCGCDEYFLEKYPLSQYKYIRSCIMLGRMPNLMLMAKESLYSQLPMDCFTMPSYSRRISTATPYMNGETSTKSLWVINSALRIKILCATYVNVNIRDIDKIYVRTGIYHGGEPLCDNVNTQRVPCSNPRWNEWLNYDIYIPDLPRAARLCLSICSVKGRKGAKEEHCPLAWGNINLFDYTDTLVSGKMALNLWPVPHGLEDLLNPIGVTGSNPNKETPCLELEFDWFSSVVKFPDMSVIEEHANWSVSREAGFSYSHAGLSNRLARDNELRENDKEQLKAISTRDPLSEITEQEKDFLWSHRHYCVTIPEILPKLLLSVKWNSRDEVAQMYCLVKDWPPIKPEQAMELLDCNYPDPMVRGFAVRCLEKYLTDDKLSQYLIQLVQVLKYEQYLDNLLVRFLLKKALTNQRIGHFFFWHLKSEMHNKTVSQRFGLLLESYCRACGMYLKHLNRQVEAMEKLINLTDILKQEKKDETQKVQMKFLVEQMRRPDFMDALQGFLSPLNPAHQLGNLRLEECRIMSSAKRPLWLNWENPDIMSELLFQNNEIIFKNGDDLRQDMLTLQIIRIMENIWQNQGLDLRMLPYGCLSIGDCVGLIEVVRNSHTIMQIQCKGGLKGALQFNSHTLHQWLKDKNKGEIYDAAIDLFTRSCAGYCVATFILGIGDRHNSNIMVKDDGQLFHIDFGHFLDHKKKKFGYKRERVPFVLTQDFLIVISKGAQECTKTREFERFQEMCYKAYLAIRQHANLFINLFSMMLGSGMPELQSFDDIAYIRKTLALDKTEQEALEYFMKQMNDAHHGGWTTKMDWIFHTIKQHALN
row,IC50,Structure (SMILES)
1,713 nM,Cc1cc(-c2ccn3nc(N)c(C(=O)N[C@H](C)CO)c3n2)cc2c1C(=O)N([C@@H](C)C1CC1)C2
2,3300 nM,Cc1cc(-c2ccn3nc(N)c(C(=O)NC4CC4)c3n2)cc2c1C(=O)N([C@@H](C)C1CC1)C2

# More lines, now with the values behind:
row,Structure (SMILES),IC50
1,Cc1cc(-c2ccn3nc(N)c(C(=O)NC4CCC4)c3n2)cc2c1C(=O)N([C@@H](C)C1CC1)C2,3660 nM
2,C[C@@H](C1CC1)N1Cc2cc(-c3ccn4nc(N)c(C(=O)NC5CC5)c4n3)cc(S(=O)(=O)C3CC3)c2C1=O,384 nM

# Tested on: not listed separately
# Assay: Metabolic stability in human hepatocytes assessed as intrinsic clearance per 10^6 cells at 0.5 uM by LC-MS/MS analysis
# Format: ADME, cell-based, Hepatocyte
# Conditions: read-out: CLH
row,hepatocyte CLint at 0.5 µM,Structure (SMILES)
1,1.31 µL/min/1e6 cells,Cc1cc(-c2ccn3nc(N)c(C(=O)N[C@H](C)CO)c3n2)cc2c1C(=O)N([C@@H](C)C1CC1)C2
2,13.4 µL/min/1e6 cells,Cc1cc(-c2ccn3nc(N)c(C(=O)Nc4cnn(C)c4)c3n2)cc2c1C(=O)N([C@@H](C)C1CC1)C2
3,8.92 µL/min/1e6 cells,Cc1cc(-c2ccn3nc(N)c(C(=O)NC4CC4)c3n2)cc2c1C(=O)N([C@@H](C)C1CC1)C2

# The remaining lines, values behind:
row,Structure (SMILES),hepatocyte CLint at 0.5 µM
1,Cc1cc(-c2ccn3nc(N)c(C(=O)NC4CCC4)c3n2)cc2c1C(=O)N([C@@H](C)C1CC1)C2,29.3 µL/min/1e6 cells
2,C[C@@H](C1CC1)N1Cc2cc(-c3ccn4nc(N)c(C(=O)NC5CC5)c4n3)cc(S(=O)(=O)C3CC3)c2C1=O,1.99 µL/min/1e6 cells

# Target: CYP3A4 (Homo sapiens, UniProt P08684)
# Assay: in vitro
# Conditions: human liver microsomes, probe midazolam
# Description: Time dependent inhibition of CYP3A4 in human liver microsomes at 10 uM using midazolam as substrate preincubated for 30 mins in presence of NADPH by LC/MS/MS analysis relative to control
# CYP3A4, sequence (P08684 whole entry): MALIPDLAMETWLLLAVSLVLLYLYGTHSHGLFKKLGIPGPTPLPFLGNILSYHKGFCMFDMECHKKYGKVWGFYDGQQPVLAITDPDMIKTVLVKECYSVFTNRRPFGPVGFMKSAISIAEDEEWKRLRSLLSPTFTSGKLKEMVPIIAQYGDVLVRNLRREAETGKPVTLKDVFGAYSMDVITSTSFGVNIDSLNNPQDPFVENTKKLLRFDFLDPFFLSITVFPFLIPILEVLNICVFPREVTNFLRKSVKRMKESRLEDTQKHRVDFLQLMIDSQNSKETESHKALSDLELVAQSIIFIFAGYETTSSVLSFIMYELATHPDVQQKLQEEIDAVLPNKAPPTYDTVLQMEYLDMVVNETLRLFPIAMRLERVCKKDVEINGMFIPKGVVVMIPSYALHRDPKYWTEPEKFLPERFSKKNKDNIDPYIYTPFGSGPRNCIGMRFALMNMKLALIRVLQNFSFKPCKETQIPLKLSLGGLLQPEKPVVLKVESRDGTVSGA
row,"inhibition at 30 min, 10 µM",Structure (SMILES)
1,19%,Cc1cc(-c2ccn3nc(N)c(C(=O)N[C@H](C)CO)c3n2)cc2c1C(=O)N([C@@H](C)C1CC1)C2
2,49%,Cc1cc(-c2ccn3nc(N)c(C(=O)Nc4cnn(C)c4)c3n2)cc2c1C(=O)N([C@@H](C)C1CC1)C2
3,27%,Cc1cc(-c2ccn3nc(N)c(C(=O)NC4CC4)c3n2)cc2c1C(=O)N([C@@H](C)C1CC1)C2

# Continued, compound first:
row,Structure (SMILES),"inhibition at 30 min, 10 µM"
1,Cc1cc(-c2ccn3nc(N)c(C(=O)NC4CCC4)c3n2)cc2c1C(=O)N([C@@H](C)C1CC1)C2,46%
2,C[C@@H](C1CC1)N1Cc2cc(-c3ccn4nc(N)c(C(=O)NC5CC5)c4n3)cc(S(=O)(=O)C3CC3)c2C1=O,23%

# Target: T2, Phosphatidylinositol 4,5-bisphosphate 3-kinase catalytic subunit delta isoform (Homo sapiens, UniProt O00329)
# T2 sequence (O00329 whole entry): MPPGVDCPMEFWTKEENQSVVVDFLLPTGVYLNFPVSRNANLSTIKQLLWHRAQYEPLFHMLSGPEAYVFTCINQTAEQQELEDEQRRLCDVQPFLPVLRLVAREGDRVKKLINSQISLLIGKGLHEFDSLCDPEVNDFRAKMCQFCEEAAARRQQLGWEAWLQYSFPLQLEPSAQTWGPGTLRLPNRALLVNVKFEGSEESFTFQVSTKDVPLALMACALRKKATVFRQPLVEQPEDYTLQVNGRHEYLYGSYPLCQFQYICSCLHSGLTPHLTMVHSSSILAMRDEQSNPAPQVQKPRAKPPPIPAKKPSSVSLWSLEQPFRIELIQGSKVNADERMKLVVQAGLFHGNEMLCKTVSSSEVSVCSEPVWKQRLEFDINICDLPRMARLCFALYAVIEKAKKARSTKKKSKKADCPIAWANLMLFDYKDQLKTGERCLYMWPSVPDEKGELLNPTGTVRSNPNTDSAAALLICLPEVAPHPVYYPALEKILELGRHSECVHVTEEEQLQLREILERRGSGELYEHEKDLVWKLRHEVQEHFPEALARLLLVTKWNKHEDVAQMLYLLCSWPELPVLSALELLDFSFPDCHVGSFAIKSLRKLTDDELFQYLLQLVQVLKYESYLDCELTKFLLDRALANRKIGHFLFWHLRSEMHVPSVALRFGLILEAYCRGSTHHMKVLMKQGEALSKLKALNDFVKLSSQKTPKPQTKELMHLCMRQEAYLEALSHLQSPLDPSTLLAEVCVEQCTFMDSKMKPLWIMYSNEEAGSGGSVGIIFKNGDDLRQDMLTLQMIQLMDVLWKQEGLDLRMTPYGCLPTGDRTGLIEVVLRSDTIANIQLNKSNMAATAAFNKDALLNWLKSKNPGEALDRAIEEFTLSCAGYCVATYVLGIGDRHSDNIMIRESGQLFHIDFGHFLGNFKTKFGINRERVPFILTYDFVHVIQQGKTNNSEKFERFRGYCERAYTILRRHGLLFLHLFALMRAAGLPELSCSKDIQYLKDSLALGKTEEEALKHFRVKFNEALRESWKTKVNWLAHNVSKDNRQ
# Assay: Inhibition of PI3Kdelta (unknown origin) using PIP2 as substrate preincubated for 1 hr followed by substrate addition and measured after 60 mins in presence of ATP by ADP-glo assay
# Conditions: not given
row,IC50,Structure (SMILES)
1,1280 nM,Cc1cc(-c2ccn3nc(N)c(C(=O)N[C@H](C)CO)c3n2)cc2c1C(=O)N([C@@H](C)C1CC1)C2
2,1670 nM,Cc1cc(-c2ccn3nc(N)c(C(=O)NC4CC4)c3n2)cc2c1C(=O)N([C@@H](C)C1CC1)C2

# Further lines, the compound ahead of its results:
row,Structure (SMILES),IC50
1,Cc1cc(-c2ccn3nc(N)c(C(=O)NC4CCC4)c3n2)cc2c1C(=O)N([C@@H](C)C1CC1)C2,1590 nM
2,C[C@@H](C1CC1)N1Cc2cc(-c3ccn4nc(N)c(C(=O)NC5CC5)c4n3)cc(S(=O)(=O)C3CC3)c2C1=O,172 nM

# Species: Homo sapiens
# Assay: Selectivity ratio of IC50 for inhibition of PI3Kdelta (unknown origin) to IC50 for inhibition of PI3Kgamma (unknown origin)
# Conditions: not given
row,Ratio IC50,Structure (SMILES)
1,415,Cc1cc(-c2ccn3nc(N)c(C(=O)N[C@H](C)CO)c3n2)cc2c1C(=O)N([C@@H](C)C1CC1)C2
2,460,Cc1cc(-c2ccn3nc(N)c(C(=O)NC4CC4)c3n2)cc2c1C(=O)N([C@@H](C)C1CC1)C2

# The next lines start with the compound.
row,Structure (SMILES),Ratio IC50
1,Cc1cc(-c2ccn3nc(N)c(C(=O)NC4CCC4)c3n2)cc2c1C(=O)N([C@@H](C)C1CC1)C2,668
2,C[C@@H](C1CC1)N1Cc2cc(-c3ccn4nc(N)c(C(=O)NC5CC5)c4n3)cc(S(=O)(=O)C3CC3)c2C1=O,100
